In general, melting point refers to the temperature of the solid-liquid transition.

In turn, `O=C1NCN(c2ccccc2)C12CCN(C1CCc3ccccc3C1)CC2` (stereo not shown) [8-[1,2,3,4tetrahydronaphthyl]-1-phenyl-1,3,8-triazospiro[4.5]decan-4-one] displayed a melting point of 192 to 193 °C.

The values above are taken from US6686370B2, “Triazospiro compounds having nociceptin receptor affinity” (Euro-Celtique S.A., priority 1999, dated 2004).
